Drawing on PubChem BioAssay (NCI), this text covers GI50 and TGI for 8 compounds.

Test systems include HOP-62 NSCLC; LOX IMVI melanoma; OVCAR-5 ovarian; NCI/ADR-RES ovarian; SK-MEL-2 melanoma; SF-268 CNS; SK-OV-3 ovarian; A549 NSCLC; SR leukemia; MCF7 breast.
Common to all, as to assay: NCI tumour cell line growth inhibition, 48 h

SMILES strings stand for the structures.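 Step 1: Grow cells in 96-well plates. Step 2: Expose to compound for 48 hours at 5 concentrations. Step 3: Interpolate endpoints linearly; if unreached, use highest concentration. GI50 is the concentration that inhibits growth by half. Definition used: TGI = concentration required for complete inhibition of growth.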

Consider `COc1cc[nH]c1/C=C1\C(=O)Nc2ccc(F)c(C#C[C@@H](O)[C@@H](N)[C@@H](C)O)c21`, for which the GI50 in the test on HOP-62 NSCLC is 0.647 µM; with LOX IMVI melanoma, 0.516 µM; with OVCAR-5 ovarian it was 0.673 µM; with NCI/ADR-RES ovarian it was 6.65 µM; in the test on SK-MEL-2 melanoma, 0.39 µM; with SF-268 CNS, 0.663 µM. Besides, the GI50 with SK-OV-3 ovarian is 0.744 µM; with A549 NSCLC, 0.681 µM; with SR leukemia, 0.114 µM; in the test with MCF7 breast it was 0.545 µM. The TGI in the test on HOP-62 NSCLC worked out at 2 µM; in the test on LOX IMVI melanoma it was 2.5 µM; in the test on OVCAR-5 ovarian, 5.14 µM; with NCI/ADR-RES ovarian it was 25 µM; with SK-MEL-2 melanoma, 0.923 µM; in the test with SF-268 CNS, 2.42 µM. Also, the TGI in the test on SK-OV-3 ovarian worked out at 9.65 µM; with A549 NSCLC, 3.13 µM; in the test on SR leukemia, 1.95 µM; in the test on MCF7 breast, 4.3 µM.
Turning to `O=C1C=C[C@]2(C[C@@H](c3cccc(C(F)(F)F)c3)O[C@@H](c3cccc(C(F)(F)F)c3)O2)O1`, the GI50 in the test on HOP-62 NSCLC was 5.08 µM; in the test on LOX IMVI melanoma, 0.433 µM; in the test on OVCAR-5 ovarian it was 7.76 µM; with NCI/ADR-RES ovarian, 1.9 µM; in the test on SK-MEL-2 melanoma, 2.21 µM; with SF-268 CNS it was 1.5 µM. Moreover, the GI50 is 14.4 µM in the test on SK-OV-3 ovarian, 5.57 µM with A549 NSCLC, 0.674 µM with SR leukemia and 0.389 µM with MCF7 breast. Also, the TGI amounted to 18.2 µM with HOP-62 NSCLC; 1.71 µM in the test on LOX IMVI melanoma; 26.1 µM in the test on OVCAR-5 ovarian; 6.62 µM in the test with NCI/ADR-RES ovarian; 6.54 µM with SK-MEL-2 melanoma; 4.14 µM in the test with SF-268 CNS. The TGI is 28.1 µM in the test with SK-OV-3 ovarian, 20.4 µM with A549 NSCLC, 5.4 µM in the test on SR leukemia and 3.68 µM in the test on MCF7 breast.
For the compound `CCCCCCCCCCCCc1ccc(C(=O)/C=C/C(=O)O)cc1`, the GI50 in the test on HOP-62 NSCLC is 14 µM; in the test on LOX IMVI melanoma, 1.45 µM; in the test with OVCAR-5 ovarian, 10.3 µM; in the test with NCI/ADR-RES ovarian, 7.78 µM; in the test with SF-268 CNS, 2.64 µM; with SK-OV-3 ovarian, 16.2 µM. Also, the GI50 in the test with A549 NSCLC is 13.8 µM; with SR leukemia it was 0.423 µM; in the test on MCF7 breast, 1.62 µM. Further, the TGI is 29.9 µM in the test on HOP-62 NSCLC; 2.81 µM in the test with LOX IMVI melanoma; 23.1 µM in the test with OVCAR-5 ovarian; 24.5 µM with NCI/ADR-RES ovarian; 8.28 µM with SF-268 CNS; 30.4 µM in the test on SK-OV-3 ovarian. In addition, the TGI with A549 NSCLC came out at 30.7 µM; in the test on SR leukemia it was 3.07 µM; in the test on MCF7 breast, 3.3 µM.
Take `COc1ccc(-c2cc(-c3ccc(Nc4nc(Nc5ccc(Cl)cc5)nc(Nc5ccc(Cl)cc5)n4)cc3)nc(N)c2C#N)cc1`: the GI50 with HOP-62 NSCLC was 11.9 µM; with LOX IMVI melanoma, 1.4 µM; with OVCAR-5 ovarian, 4.14 µM; in the test on NCI/ADR-RES ovarian, 13.3 µM; in the test on SK-MEL-2 melanoma, 1.66 µM; in the test with SF-268 CNS, 2.88 µM. The GI50 is 8.71 µM with SK-OV-3 ovarian, 3.64 µM in the test with A549 NSCLC, 0.485 µM with SR leukemia and 2.59 µM in the test on MCF7 breast. Also, the TGI is more than 42.3 µM in the test with HOP-62 NSCLC; 2.73 µM in the test on LOX IMVI melanoma; 24 µM with OVCAR-5 ovarian; more than 100 µM in the test on NCI/ADR-RES ovarian; 3.2 µM in the test on SK-MEL-2 melanoma; 8.38 µM with SF-268 CNS. The TGI with SK-OV-3 ovarian is more than 28.1 µM; in the test on A549 NSCLC, more than 100 µM; in the test with SR leukemia it was 3.29 µM; in the test on MCF7 breast, more than 32.3 µM.
On to `ClC(=Nc1cccc2ccccc12)N(c1ccccc1)c1ccccc1`, for which the TGI in the test on HOP-62 NSCLC, in the test with LOX IMVI melanoma, in the test on OVCAR-5 ovarian, with NCI/ADR-RES ovarian, in the test with SK-MEL-2 melanoma and in the test on SK-OV-3 ovarian was more than 100 µM in each case. The TGI with A549 NSCLC, in the test with SR leukemia and in the test with MCF7 breast was more than 100 µM in each case.
As to `O=C1c2cc3c(cc2-c2c1c1cc(Cl)c(Cl)cc1c(=O)n2CCCn1ccnc1)OCO3`, the GI50 is less than 0.01 µM with HOP-62 NSCLC; less than 0.01 µM in the test with LOX IMVI melanoma; 0.0239 µM in the test with OVCAR-5 ovarian; less than 0.01 µM in the test with NCI/ADR-RES ovarian; 0.222 µM in the test with SK-MEL-2 melanoma; less than 0.01 µM with SF-268 CNS. In addition, the GI50 in the test with SK-OV-3 ovarian, in the test on A549 NSCLC, with SR leukemia and with MCF7 breast was less than 0.01 µM throughout. For the same compound, the TGI was 0.0183 µM in the test with LOX IMVI melanoma; more than 100 µM in the test with OVCAR-5 ovarian; 11.6 µM with NCI/ADR-RES ovarian; 26.7 µM in the test on SK-MEL-2 melanoma; more than 100 µM in the test on SF-268 CNS; 0.0305 µM in the test with SK-OV-3 ovarian. Moreover, the TGI with A549 NSCLC was more than 100 µM; with SR leukemia, 1.67 µM; in the test with MCF7 breast it was 12.3 µM.
`COc1cc2c3c(n(C)c(=O)c2cc1OC)-c1cc2c(cc1/C3=C\CCCCN)OCO2`: the GI50 with LOX IMVI melanoma is 12.9 µM; in the test with OVCAR-5 ovarian, 15.5 µM; in the test with NCI/ADR-RES ovarian, 4.74 µM; with SK-MEL-2 melanoma it was 5.71 µM; in the test with SK-OV-3 ovarian it was 17.1 µM; in the test on A549 NSCLC, 6.26 µM. The GI50 in the test with SR leukemia is 3.58 µM; with MCF7 breast it was 3.46 µM. For the same compound, the TGI is 41.1 µM in the test with LOX IMVI melanoma; 35.4 µM in the test on OVCAR-5 ovarian; 18.1 µM in the test on NCI/ADR-RES ovarian; 24.1 µM in the test on SK-MEL-2 melanoma; 46.7 µM with SK-OV-3 ovarian; 27.4 µM with A549 NSCLC. The TGI was more than 100 µM in the test with SR leukemia and 12.7 µM with MCF7 breast.
Turning to `COc1ccc(N(C)c2nc(C)nc3ccccc23)cc1`, the GI50 in the test on HOP-62 NSCLC, with LOX IMVI melanoma, in the test on OVCAR-5 ovarian, in the test with NCI/ADR-RES ovarian, in the test on SF-268 CNS and in the test on SK-OV-3 ovarian was less than 0.01 µM each time. The GI50 in the test on A549 NSCLC, in the test on SR leukemia and in the test on MCF7 breast was less than 0.01 µM each time. Besides, the TGI was more than 100 µM with HOP-62 NSCLC; more than 51.4 µM with LOX IMVI melanoma; more than 100 µM with OVCAR-5 ovarian; more than 34 µM with SF-268 CNS; more than 26.1 µM with SK-OV-3 ovarian; more than 100 µM in the test with A549 NSCLC. Besides, the TGI was more than 36.5 µM in the test with SR leukemia and more than 100 µM in the test on MCF7 breast.
